Measured values published in patent US20250064773A1, “TARGETING ERO1 ALPHA WITH AURONE DERIVATIVES” (West Virginia University Board of Governors on behalf of …, priority 2021, published 2025).
Like-named read-outs stand apart in the source and are kept apart here.

Tested on: PC-9 non-small cell lung cancer cell line
Assay: MTT viability assay, PC-9
Format: cell-based
Details: 72 hours
Experimental: We utilized an MTT assay to determine the potency of the compounds for inhibiting cell growth. […] We next asked whether T151742 induced inhibition of cell growth was dependent on ERO1α expression. As shown in FIG. 6C two ERO1α deleted clones in the PC-9 cell line were isolated. Using an MTT assay to determine overall cellar viability, a non-targeted control (scramble), and both ERO1α knockout clones was subjected to treatment with T151742 for 72 hours (See FIG. 6D). […] Though only slight differences were observed between T151742 and EN-460 we tested the effects of these compounds in a clonogenic assay which is a better test for inhibition of self-renewal.
Cell Lines: PC-9 cell line used was obtained from Sigma Aldrich and grown in RPMI 1640 medium with 10% fetal bovine serum and 1% penicillin/streptomycin. HCC4006, U266, MM1.s, and Beas-2B cell lines were obtained from ATCC and cultured in either RPMI 1640 or DMEM with 10% fetal bovine serum and 1% penicillin/streptomycin. All cell lines were also checked for mycoplasma every six months and subjected to short tandem repeat (STR) analysis for cell line validation. CRISPR Cas9: CRISPR Guide RNA 2 targeting ERO1α and CRISPR Guide RNA 4 were purchased from Genscript in the pLentiCRISPR V2 plasmid containing puromycin/ampicillin selection marker. Lentivirus was made from HEK 293T cells by co-transfection with GuideRNA of interest, pVSVG, and pPAX2 plasmids. Lentivirus was collected after 48 hours and concentrated using 40% PEG8000. […] Plate was then read on the BioTek Cytation 5 at 530/590 nm. […] Plate was then read at 570 nm. Treated wells were all compared to DMSO control wells to calculate percent growth inhibition and the IC50 was calculated using GraphPad (log(inhibitor) vs growth inhibition). […] Images were then quantified using ImageJ. […] Cells were aliquoted at 1 million cells per PCR tube in PBS and heated in Bio-Rad T100 thermal cycler at indicated temperatures (RT, 46° C., 48° C., 50° C., 52° C., 54° C., 56°, 58° C., and 60° C.) for 3 minutes and aggregation temperature was determined by western blot analysis. […]

CN(C)c1ccc(/C=C2\Oc3cc(O)ccc3C2=O)cc1 [Compound T151742]
IC50 (read-out: IC50, MTT assay, PC-9): 14.1 ± 3.99 µM
IC50 (non-targeted control (scramble), read-out: IC50, MTT assay, PC-9 WT): 14.1 µM
